From ChEMBL document CHEMBL3621076, “Synthesis and Characterization in Vitro and in Vivo of (l)-(Trimethylsilyl)alanine Containing Neurotensin Analogues” (J Med Chem, 2015)
Active and inactive are the calls of the source. The calls are words filed in the database; no cut-off is given here. Square brackets hold non-standard residues; d marks the D form. Peptide text beside a SMILES is read from it. Pro(4-sila,4,4-Me2) = C[Si]1(C)CN[C@H](C(=O)O)C1; Ala(SiMe3) = C[Si](C)(C)C[C@H](N)C(=O)O; NMeR = CN[C@@H](CCCNC(=N)N)C(=O)O; hLys = NCCCCC[C@H](N)C(=O)O

Legend:
Rattus norvegicus [1] = experiment: Reduction in arterial blood pressure in Sprague-Dawley rat at 0.1 mg/kg, iv measured over 4 mins; type: functional
[2] = Half life in rat plasma at 0.156 mM by UPLC/MS method; type: ADME, cell-free
Rattus norvegicus [3] = experiment: Analgesic activity in Sprague-Dawley rat model of formalin-induced persistent tonic pain model assessed as reduction in weighted pain score during inflammatory phase at 30 ug/kg, it by formalin test; type: functional, organism-based
Rattus norvegicus [4] = experiment: Reduction in arterial blood pressure in Sprague-Dawley rat assessed as sustained and pronounced hypotensive phase at 0.1 mg/kg, iv measured over 4 mins; type: functional, organism-based
Rattus norvegicus [5] = experiment: Analgesic activity in Sprague-Dawley rat assessed as increase in response latency to thermal noxious stimulus at 30 ug/kg, it measured every 10 mins for up to 1 hr post dose by tail immersion test; type: functional, organism-based
[6] = molecular target: T1, Neurotensin receptor type 1 (Homo sapiens, UniProt P30989); experiment: Agonist activity at human NTS1 receptor expressed in CHOK1 cells co-expressing Galphaq-RlucII(121)/Gbeta1/GFP10-Ggamma1 assessed as Galpha-q stimulation incubated for 15 mins by BRET assay; type: cell-based, CHO-K1
T1 sequence (P30989 whole entry): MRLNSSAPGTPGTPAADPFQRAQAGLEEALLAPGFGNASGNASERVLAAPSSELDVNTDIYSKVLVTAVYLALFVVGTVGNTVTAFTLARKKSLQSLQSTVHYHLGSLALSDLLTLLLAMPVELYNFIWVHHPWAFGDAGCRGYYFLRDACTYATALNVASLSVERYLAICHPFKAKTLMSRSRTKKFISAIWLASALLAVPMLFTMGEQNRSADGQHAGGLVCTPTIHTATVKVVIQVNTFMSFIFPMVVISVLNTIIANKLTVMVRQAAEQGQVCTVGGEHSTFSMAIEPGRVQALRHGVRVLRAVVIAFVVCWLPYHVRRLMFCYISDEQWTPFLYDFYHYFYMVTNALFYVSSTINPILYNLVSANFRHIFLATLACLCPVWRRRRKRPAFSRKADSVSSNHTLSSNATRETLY

[7] = molecular target: Neurotensin receptor type 1 (Rattus norvegicus, UniProt P20789); experiment: Agonist activity at […] NTS1 in Sprague-Dawley rat ileum assessed as inhibition of carbachol-induced contraction; type: tissue-based
Sequence of Neurotensin receptor type 1 (Rattus norvegicus, UniProt P20789) (P20789 whole entry): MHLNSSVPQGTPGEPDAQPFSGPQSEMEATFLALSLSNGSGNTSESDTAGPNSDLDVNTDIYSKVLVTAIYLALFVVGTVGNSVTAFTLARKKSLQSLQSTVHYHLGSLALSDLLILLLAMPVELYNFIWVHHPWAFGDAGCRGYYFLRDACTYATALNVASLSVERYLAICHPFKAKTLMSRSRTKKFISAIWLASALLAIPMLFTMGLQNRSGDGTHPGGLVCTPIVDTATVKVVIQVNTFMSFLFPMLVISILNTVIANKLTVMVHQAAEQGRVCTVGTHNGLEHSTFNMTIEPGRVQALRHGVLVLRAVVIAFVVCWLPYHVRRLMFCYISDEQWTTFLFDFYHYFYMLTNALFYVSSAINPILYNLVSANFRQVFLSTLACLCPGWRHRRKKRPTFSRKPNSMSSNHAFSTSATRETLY

Rattus norvegicus [8] = experiment: Analgesic activity in Sprague-Dawley rat model of formalin-induced persistent tonic pain model assessed as reduction in weighted pain score during acute phase at 30 ug/kg, it by formalin test; type: functional, organism-based
[9] = molecular target: Neurotensin receptor type 2 (Homo sapiens, UniProt O95665); experiment: Displacement of [125I]-Tyr3-NT from human NTS2 receptor expressed in 1321N1 cell membranes incubated for 30 mins by gamma-counting based competitive radioligand binding assay
Sequence of Neurotensin receptor type 2 (O95665 whole entry): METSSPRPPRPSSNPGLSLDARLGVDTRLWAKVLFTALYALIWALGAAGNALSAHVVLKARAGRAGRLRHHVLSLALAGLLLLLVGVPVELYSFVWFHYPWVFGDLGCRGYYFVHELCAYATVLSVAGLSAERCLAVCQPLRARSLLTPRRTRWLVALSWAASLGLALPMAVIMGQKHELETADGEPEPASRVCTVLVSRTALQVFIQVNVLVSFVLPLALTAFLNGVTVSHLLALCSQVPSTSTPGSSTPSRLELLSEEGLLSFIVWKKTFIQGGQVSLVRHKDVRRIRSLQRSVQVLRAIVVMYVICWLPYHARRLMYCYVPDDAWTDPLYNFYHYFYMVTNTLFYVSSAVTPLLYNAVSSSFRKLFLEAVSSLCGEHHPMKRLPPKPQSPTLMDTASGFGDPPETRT

[10] = molecular target: T1, Neurotensin receptor type 1; experiment: Agonist activity at human NTS1 receptor expressed in CHOK1 cells co-expressing hNTS1-GFP10/RlucII-beta-arrestin 2 assessed as beta-arrestin2 recruitment incubated for 15 mins by BRET assay; type: cell-based, CHO-K1
[11] = molecular target: T1, Neurotensin receptor type 1; experiment: Displacement of [125I]-Tyr3-NT from human NTS1 receptor expressed in CHOK1 cell membranes incubated for 30 mins by gamma-counting based competitive radioligand binding assay; parameters: species or system CHO-K1
Rattus norvegicus [12] = experiment: Reduction in arterial blood pressure in Sprague-Dawley rat assessed as hypotensive effect during pressor phase returning to baseline saline values within <1 mins at 0.1 mg/kg, iv measured over 4 mins; type: functional, organism-based
Rattus norvegicus [13] = experiment: Analgesic activity in Sprague-Dawley rat assessed as maximal possible effect for reduction in sensitivity to heat stimulation at 30 ug/kg, it measured every 10 mins for up to 1 hr post dose by tail immersion test; type: functional; parameters: scale not given: the % may be the effect or the level left
Rattus norvegicus [14] = species on record: Rattus norvegicus; experiment: Analgesic activity in rat by tail flick test; type: functional

Compound CC[C@H](C)[C@H](NC(=O)[C@H](Cc1ccc(O)cc1)NC(=O)[C@@H]1CCCN1C(=O)[C@H](CCCNC(=N)N)NC(=O)[C@@H](N)CCCNC(=N)N)C(=O)N[C@@H](CC(C)C)C(=O)O has an Activity (Rattus norvegicus [1]) of 30 mmHg and a half-life at 156 µM [2] of 1.95 min.
With CC[C@H](C)[C@H](NC(=O)[C@H](Cc1ccc(O)cc1)NC(=O)[C@@H]1CCCN1C(=O)[C@H](CCCCN)NC(=O)[C@@H](N)CCCCN)C(=O)N[C@@H](C[Si](C)(C)C)C(=O)O (H-KKPYI[Ala(SiMe3)]-OH) the Activity (Rattus norvegicus [3]) was “Active”, the Activity (Rattus norvegicus [4]) was “Active” and the Activity (Rattus norvegicus [5]) was “Active”. For the same compound, the Activity (Rattus norvegicus [1]) was “Active”, the EC50 [6] was 1.51 nM and the EC50 [7] was 1.41 nM. For the same compound, the Activity (Rattus norvegicus [8]) was “Active”, the IC50 [9] was 0.26 nM and the EC50 [10] was 1.49 nM. For the same compound, the half-life at 156 µM [2] was 1.33 min, the IC50 [11] was 0.02 nM and the Activity (Rattus norvegicus [12]) was “Active”. The Activity (Rattus norvegicus [13]) was 40%.
CC(C)C[C@H](NC(=O)[C@H](C[Si](C)(C)C)NC(=O)[C@H](Cc1ccc(O)cc1)NC(=O)[C@@H]1CCCN1C(=O)[C@H](CCCCN)NC(=O)[C@@H](N)CCCCN)C(=O)O (H-KKPY[Ala(SiMe3)]L-OH) showed an EC50 [6] of 169 nM, an EC50 [7] of over 10000 nM and an IC50 [9] of 405 nM. The EC50 [10] was 26.6 nM, the half-life at 156 µM [2] was 2.4 min and the IC50 [11] was 93.8 nM.
Compound C[Si](C)(C)C[C@H](NC(=O)[C@H](C[Si](C)(C)C)NC(=O)[C@H](Cc1ccc(O)cc1)NC(=O)[C@@H]1CCCN1C(=O)[C@H](CCCCN)NC(=O)[C@@H](N)CCCCN)C(=O)O (H-KKPY[Ala(SiMe3)][Ala(SiMe3)]-OH) has an EC50 [6] of 11 nM, an EC50 [7] of 22.5 nM and an IC50 [9] of 28.9 nM. The EC50 [10] was 0.34 nM, the half-life at 156 µM [2] was 2.83 min and the IC50 [11] was 15.4 nM.
CN[C@@H](CCCNC(=N)N)C(=O)N[C@@H](CCCCN)C(=O)N1CCC[C@H]1C(=O)N[C@@H](Cc1ccc(O)cc1)C(=O)N[C@@H](C[Si](C)(C)C)C(=O)N[C@@H](CC(C)C)C(=O)O (H-[NMeR]KPY[Ala(SiMe3)]L-OH) showed an EC50 [6] of 204 nM, an EC50 [7] of over 10000 nM and an IC50 [9] of 29.7 nM. The EC50 [10] was 4.19 nM, the half-life at 156 µM [2] was over 120 min and the IC50 [11] was 246 nM.
Work on CC(C)C[C@H](NC(=O)[C@H](C[Si](C)(C)C)NC(=O)[C@H](Cc1ccc(O)cc1)NC(=O)[C@@H]1C[Si](C)(C)CN1C(=O)[C@H](CCCCN)NC(=O)[C@@H](N)CCCCCN)C(=O)O (H-[hLys]K[Pro(4-sila,4,4-Me2)]Y[Ala(SiMe3)]L-OH) yielded an EC50 [6] of over 10000 nM, an EC50 [7] of over 10000 nM and an IC50 [9] of 1420 nM. For the same compound, the EC50 [10] was over 1000 nM, the half-life at 156 µM [2] was 3.52 min and the IC50 [11] was 968 nM.
Work on CO[C@@]12CC[C@@]3(C[C@@H]1[C@](C)(O)C(C)(C)C)[C@H]1Cc4ccc(O)c5c4[C@@]3(CCN1CC1CC1)[C@H]2O5 [BUPRENORPHINE] yielded an ED50 (Rattus norvegicus [14]) of 4 nmol.
For CN1CC[C@]23c4c5ccc(O)c4O[C@H]2C(=O)CC[C@H]3[C@H]1C5 [HYDROMORPHONE], the ED50 (Rattus norvegicus [14]) was 78 nmol.
For CN1CC[C@]23c4c5ccc(O)c4O[C@H]2[C@@H](O)C=C[C@H]3[C@H]1C5 [MORPHINE], the ED50 (Rattus norvegicus [14]) was 7.4 nmol.
